Source: patent publication US20110195845A1, “Constructs for Expressing Herbicide Tolerance Genes, Related Plants, and Related Trait Combinations” (Dow AgroSciences LLC, priority 2008, published 2011)

Legend:
[1] = tested on: Escherichia coli BL21-Star (DE3) with empty pET vector; test: Complementation of cell growth on glufosinate, empty pET vector (control); format: cell-based; parameters: key: +++ = Heavy Lawn Growth; ++ = Light lawn growth; + = patchy lawn growth; −− = No Growth; details: 24 hrs @28 C, 20 uM IPTG
Excerpt: A pET28a(+) expression plasmid containing PAT (v3) was constructed as a positive control. PAT (v3) was cloned as an NcoI-SacI fragment into corresponding restriction sites of pDAB779. Positive clones containing the PAT (v3) gene fragment were verified via restriction enzyme digestion. This construct was labeled as pDAB4434.
The plasmids, pDAB4434, pDAB4412, and an empty pET vector (control) were transformed into Escherichia coli BL21-Star (DE3) bacterial cells. Expression cultures were initiated with 10-200 freshly transformed colonies into 250 mL LB medium containing 50 μg/ml antibiotic and 75 μM IPTG (isopropyl-[…]). The cultures were grown at 28° C. for 24 hours at 180-200 rpm. Five microliters of the culture was inoculated onto a complex media control and minimal media containing incrementally increasing concentrations of glufosinate and 20 μM IPTG. The cultures were dispersed evenly over the plates and incubated at 28° C. for 24 hours.

E. coli Top10 = test: Bacterial strain response to glufosinate on minimal media; format: cell-based, Escherichia coli; parameters: key: +++ = Heavy Lawn Growth; ++ = Light lawn growth; + = patchy lawn growth; −− = No Growth; details: 24 hrs @ 37 C
Description: (§1) Selected cell lines of Escherichia coli and Agrobacterium tumefaciens were inoculated on minimal media containing incrementally increasing concentrations of Glufosinate (BASTA). The cell lines; BL21-Star (DE3), Top10, DH5α, Agrobacterium tumefaciens C58, and Agrobacterium tumefaciens LBA4404s were initially grown up on complex media. The Escherichia coli strains were grown in LB and the Agrobacterium tumefaciens strains were grown in YEP. Five microliters of bacterial culture was inoculated and dispersed evenly onto minimal media plates containing various concentrations of glufosinate. The concentrations consisted of 0 μg/ml, 250 μg/ml, 500 μg/ml, 1000 μg/ml, 2000 μg/ml, and 4000 μg/ml of BASTA. In addition, the bacterial strains were inoculated onto a plate of complex media as a control—Agrobacterium tumefaciens strains were inoculated on YEP agar plates, and Escherichia coli strains were inoculated on LB agar plates. The plates containing the Escherichia coli strains were incubated at 37° C. for 24 hours. The plates containing the Agrobacterium tumefaciens strains were incubate at 25° C. for 48 hours. […] Table 7 illustrates the capability of the various strains to grow on minimal media containing glufosinate.

E. coli DH5α = test: as above; format: cell-based, Escherichia coli; parameters: key: +++ = Heavy Lawn Growth; ++ = Light lawn growth; + = patchy lawn growth; −− = No Growth; details: 24 hrs @ 37 C
Description: as §1

Wildtype corn = test: Leaf paint with glufosinate in corn; format: in vivo; details: for % Injury: 2 WAT
Description: (§2) T0 DSM-2 (v2) plants were painted with a rundown of glufosinate herbicide. Four siblings from each of 15 T0 events were tested, and 4 leaves on each individual plant received a rundown of glufosinate at approximately V8 stage. Rundown treatments were randomized for each rate allowing for variation of treatment location on individual leaves. For corn, 0.25% v/v glufosinate is the minimum effective dose to distinguish sensitive plants from ones with meaningful levels of resistance. Elevated rates were also applied to determine relative levels of resistance (0.5%, 1.0%, and 2.0% v/v). Glufosinate treatments were applied using cotton tipped applicators to a treatment area of approximately 2.5 cm in diameter.
(§3) Table 11 compares the response of DSM-2 (v2) and control genes to impart glufosinate resistance to corn T0 transformants. Response is presented in terms of % visual injury 2 WAT. […] Since each T0 is an independent transformation event, one can expect significant variation of individual T0 responses within a given rate. An arithmetic mean and standard deviation is presented for each treatment. Untransformed wildtype corn served as a glufosinate sensitive control. The DSM-2 (v2) gene imparted herbicide resistance to individual T0 corn plants. Within a given treatment, the level of plant response varied greatly and can be attributed to the fact each plant represents an independent transformation event.

PAT (pDAS1942) corn = test: T2 corn response to glufosinate applied postemergence; format: in vivo; details: 14DAT
Excerpt: (§4) The seed from the cross of T1 DSM-2 (v2)×5× H751 were planted into 4-inch pots containing Metro Mix media and at 2 leaf stage were sprayed in the track sprayer set to 187 L/ha at 560 g ai/ha glufosinate to remove nulls. At 7 DAT nulls were removed and resistant plants were sprayed in the track sprayer as above at the following rates: 0, 560, 1120, 2240, and 4480 g ai/ha glufosinate. Plants were graded at 3 and 14 DAT and compared to 5× H751× Hi II control plants.

[2] = tested on: DSM-2 v2 (pDAS1941) T2 corn; test: as above; format: in vivo; details: for % Injury Ave / individuals with % Injury 20-40% / individuals with % Injury <20% / individuals with % Injury >40%: 14DAT
Excerpt: as §4

[3] = tested on: T0 PAT-transformed corn plants; test: Leaf paint with glufosinate in T0 corn; format: in vivo; details: 2 WAT
Description: as §2, §3

[4] = tested on: T0 DSM-2 (v2)-transformed corn plants; test: Leaf paint with glufosinate in T0 corn; format: in vivo; details: for % Injury: 2 WAT
Description: as §2, §3

[5] = 0.25% v/v glufosinate leaf paint
[6] = 0.5% v/v glufosinate leaf paint
[7] = 560 g ai/ha glufosinate postemergence
[8] = 1120 g ai/ha glufosinate postemergence
[9] = 4480 g ai/ha glufosinate postemergence
[10] = 2240 g ai/ha glufosinate postemergence

CP(=O)(O)CCC(N)C(=O)O (stereo not drawn) [glufosinate]
bacterial growth on minimal media ([1]; 250 μg/ml BASTA): −−
bacterial growth on minimal media ([1]; 500 μg/ml BASTA): −−
bacterial growth on minimal media ([1]; 1000 μg/ml BASTA): −−
bacterial growth on minimal media ([1]; 2000 μg/ml BASTA): −−
bacterial growth on minimal media ([1]; 4000 μg/ml BASTA): −−
bacterial growth on minimal media (E. coli Top10; 250 μg/ml BASTA): +++
bacterial growth on minimal media (E. coli Top10; 500 μg/ml BASTA): +++
bacterial growth on minimal media (E. coli Top10; 1000 μg/ml BASTA): +++
bacterial growth on minimal media (E. coli Top10; 2000 μg/ml BASTA): +
bacterial growth on minimal media (E. coli Top10; 4000 μg/ml BASTA): −−
bacterial growth on minimal media (E. coli DH5α; 250 μg/ml BASTA): +++
bacterial growth on minimal media (E. coli DH5α; 500 μg/ml BASTA): +++
bacterial growth on minimal media (E. coli DH5α; 1000 μg/ml BASTA): +++
bacterial growth on minimal media (E. coli DH5α; 2000 μg/ml BASTA): +++
bacterial growth on minimal media (E. coli DH5α; 4000 μg/ml BASTA): −−
% Injury (Wildtype corn; [5]): 33%
% Injury (Wildtype corn; [6]): 50%
% Injury (Wildtype corn; 1% v/v glufosinate leaf paint): 84%
% Injury (Wildtype corn; 2% v/v glufosinate leaf paint): 90%
minimum effective dose to distinguish sensitive plants from ones with meaningful levels of resistance (Wildtype corn; corn, leaf paint): 0.25 % v/v
individuals with % Injury 20-40% (PAT (pDAS1942) corn; [7]): 0
individuals with % Injury >40% (PAT (pDAS1942) corn; [7]): 0
% Injury Ave (PAT (pDAS1942) corn; [8]): 25%
individuals with % Injury 20-40% (PAT (pDAS1942) corn; [8]): 1
individuals with % Injury <20% (PAT (pDAS1942) corn; [8]): 0
% Injury Ave (PAT (pDAS1942) corn; [9]): 33%
individuals with % Injury 20-40% (PAT (pDAS1942) corn; [9]): 3
individuals with % Injury >40% (PAT (pDAS1942) corn; [9]): 1
% Injury Ave [2, 7]: 6%
individuals with % Injury 20-40% [2, 7]: 0
individuals with % Injury <20% [2, 7]: 4
individuals with % Injury >40% [2, 7]: 0
% Injury Ave [2, 8]: 18%
individuals with % Injury 20-40% [2, 8]: 2
individuals with % Injury <20% [2, 8]: 2
individuals with % Injury >40% [2, 8]: 0
% Injury Ave [2, 10]: 21%
individuals with % Injury 20-40% [2, 10]: 3
individuals with % Injury <20% [2, 10]: 1
individuals with % Injury >40% [2, 10]: 0
% Injury Ave [2, 9]: 29%
individuals with % Injury 20-40% [2, 9]: 4
individuals with % Injury <20% [2, 9]: 0
individuals with % Injury >40% [2, 9]: 0
injury of individual plants ([2]; up to 2240 g ai/ha glufosinate): less than 20%
% Injury [3, 5]: 1%
% Injury [3, 6]: 3%
% Injury ([3]; 1% v/v glufosinate leaf paint): 6%
% Injury ([3]; 2% v/v glufosinate leaf paint): 9%
% Injury [4, 5]: 0%
% Injury [4, 6]: 1%
% Injury ([4]; 1% v/v glufosinate leaf paint): 2%
% Injury ([4]; 2% v/v glufosinate leaf paint): 4%
performance compared to PAT-transformed plants ([4]; up to 2% v/v glufosinate): performs better overall than PAT-transformed plants
